Holding throughout (assay type): cell-based
In one test the test system is IFN. The test is described as follows: Cytokine Induction in Human Cells: interferon (IFN) secreted by PBMCs, A549/encephalomyocarditis bioassay. Also: call rule not given here. As to conditions: 18 to 24 hours. In a few lines:
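Human PBMCs from healthy donors at 1.5-2×10^6 cells/mL in RPMI with 10% FBS, exposed to compounds (typically 0.1 to 100 μM, ≤1% DMSO) for 18 to 24 h at 37° C. Secreted IFN measured by A549/encephalomyocarditis virus cytopathic-effect bioassay, in alpha reference units/mL against NIH human leukocyte IFN standard.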

For the next test, the system named is interferon α. The test is described as follows: Interferon (α) Induction in Human Cells (PBM's, 48 hours, A549 bioassay). As to conditions: 48 hours incubation. The arrangement: key: +: indicates that the compound induced interferon α at that particular concentration; −: indicates that the compound did not induce interferon α at that particular concentration; ±: indicates that the results were equivocal at that particular concentration. The method, then: An in vitro human blood cell system was used to assess interferon induction by compounds of the invention. Activity is based on the measurement of interferon secreted into culture media. Interferon is measured by bioassay.
Whole blood was collected by venipuncture into EDTA vacutainer tubes. Peripheral blood mononuclear cells (PBM's) were separated from whole blood by using either LeucoPREP™ Brand Cell Separation Tubes (available from Becton Dickinson) or Ficoll-Paque® solution (available from Pharmacia LKB Biotechnology Inc, Piscataway, N.J.). The PBM's were suspended at 1×10^6/mL in RPMI 1640 media (available from GIBCO, Grand Island, N.Y.) containing 25 mM HEPES (N-2-hydroxyethylpiperazine-N′-2-ethanesulfonic acid) and L-glutamine (1% penicillin-streptomycin solution added) with 10% heat inactivated (56° C. for 30 minutes) autologous serum added. 200 μL portions of PBM suspension were added to 96 well (flat bottom) MicroTest III sterile tissue culture plates.
The compounds were solubilized in ethanol, dimethyl sulfoxide or tissue culture water then diluted with tissue culture water, 0.01N sodium hydroxide or 0.01N hydrochloric acid (The choice of solvent will depend on the chemical characteristics of the compound being tested.). Ethanol or DMSO concentration should not exceed a final concentration of 1% for addition to the culture wells. Compounds were initially tested in a concentration range of from about 0.1 μg/mL to about 5 μg/mL. Compounds which show induction at a concentration of 0.5 μg/mL were then tested in a wider concentration range.
The solution of test compound was added in a volume (less than or equal to 50 μL) to the wells containing 200 μL of diluted whole blood or of PBM's in media. Solvent and/or media was added to control wells (wells with no test compound) and as needed to adjust the final volume of each well to 250 μL. The plates were covered with plastic lids, vortexed gently and then incubated for 48 hours at 37° C. with a 5% carbon dioxide atmosphere.
Following incubation, the plates were covered with parafilm and then centrifuged at 1000 rpm for 10 to 15 minutes at 4° C. in a Damon IEC Model CRU-5000 centrifuge. Media (about 200 μL) was removed from 4 to 8 wells and pooled into 2 mL sterile freezing vials. Samples were maintained at −70° C. until analysis.
Interferon was determined by bioassay using A549 human lung carcinoma cells challenged with encephalomyocarditis. The details of the bioassay method have been described by G. L. Brennan and L. H. Kronenberg in “Automated Bioassay of Interferons in Micro-test Plates”, Biotechniques, June/July 78, 1983, incorporated herein by reference. Briefly stated the method is as follows: interferon dilutions and A549 cells are incubated at 37° C. for 12 to 24 hours. The incubated cells are infected with an inoculum of encephalomyocarditis virus. The infected cells are incubated for an additional period at 37° C. before quantifying for viral cytopathic effect. The viral cytopathic effect is quantified by staining followed by spectrophotometric absorbance measurements. Results are expressed as alpha reference units/mL based on the value obtained for NIH HU IF-L standard. The interferon was identified as essentially all interferon alpha by testing in checkerboard neutralization assays against rabbit anti-human interferon (beta) and goat anti-human interferon (alpha) using A549 cell monolayers challenged with encephalomyocarditis virus.

In another test the test system is TNF. Put plainly: Cytokine Induction in Human Cells: tumor necrosis factor (TNF) secreted by PBMCs, ELISA. Also: call rule not given here. As to conditions: 18 to 24 hours. The procedure, abridged: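 Human donor PBMCs at 1.5-2×10^6 cells/mL in RPMI with 10% FBS were exposed to compound, generally at 0.1 to 100 μM (≤1% DMSO final), for 18 to 24 h at 37 °C. Secreted TNF in supernatant was measured by ELISA and reported as pg/mL.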

SMILES strings stand for the structures.

In the case of `CCCCc1nc2c(N)nc3c(c2n1CC(C)C)CCCN3` [Example 13, 2-Butyl-6,7,8,9-tetrahydro-1-(2-methylpropyl) 1H-imidazo[4,5-c][1,8]naphthyridin-4-amine], the IFN induction entry in the test on IFN (Dose Concentration 1.0 μM), with IFN (Dose Concentration 10.0 μM) and in the test on IFN (Dose Concentration 100.0 μM) was “+” in each case. The “Interferon (α) Induction in Human Cells” value with interferon α (Dose Concentration 0.01 μg/mL) was “−”; in the test on interferon α (Dose Concentration 0.05 μg/mL), “+”; in the test with interferon α (Dose Concentration 0.10 μg/mL) it was “+”; in the test with interferon α (Dose Concentration 0.50 μg/mL), “+”; in the test on interferon α (Dose Concentration 1.0 μg/mL), “+”; in the test with interferon α (Dose Concentration 5.0 μg/mL), “+”. For the same compound, the “Interferon (α) Induction in Human Cells” value with interferon α (Dose Concentration 10.0 μg/mL), with interferon α (Dose Concentration 25.0 μg/mL) and with interferon α (Dose Concentration 50.0 μg/mL) was “+” each time. Further, the TNF induction entry with TNF (Dose Concentration 1.0 μM), in the test on TNF (Dose Concentration 10.0 μM) and in the test with TNF (Dose Concentration 100.0 μM) was “+” throughout.

Consider `CCCCc1nc2c(N)nc3cccnc3c2n1CC(C)C` [Example 39, 2-Butyl-1-(2-methylpropyl)-1H-imidazo[4,5-c][1,5]naphthyridin-4-amine], for which the IFN induction entry was “+” in the test with IFN (Dose Concentration 1.0 μM), “+” with IFN (Dose Concentration 10.0 μM) and “−” in the test on IFN (Dose Concentration 100.0 μM). Also, the “Interferon (α) Induction in Human Cells” value is on record as “−” in the test with interferon α (Dose Concentration 0.01 μg/mL); “−” in the test on interferon α (Dose Concentration 0.05 μg/mL); “+” in the test on interferon α (Dose Concentration 0.10 μg/mL); “+” with interferon α (Dose Concentration 0.50 μg/mL); “+” with interferon α (Dose Concentration 1.0 μg/mL); “+” with interferon α (Dose Concentration 5.0 μg/mL). Further, the “Interferon (α) Induction in Human Cells” value in the test on interferon α (Dose Concentration 10.0 μg/mL), with interferon α (Dose Concentration 25.0 μg/mL) and with interferon α (Dose Concentration 50.0 μg/mL) was “+” each time. The TNF induction result is on record as “+” in the test on TNF (Dose Concentration 1.0 μM), “+” in the test on TNF (Dose Concentration 10.0 μM) and “−” in the test on TNF (Dose Concentration 100.0 μM).

Turning to `CC(C)Cn1cnc2c(N)nc3ncccc3c21` [Example 9, 1-(2-Methylpropyl)-1H-imidazo[4,5-c][1,8]naphthyridin-4-amine hydrate], the IFN induction entry in the test with IFN (Dose Concentration 0.1 μM) is given as “±”; in the test with IFN (Dose Concentration 1.0 μM), “−”; in the test on IFN (Dose Concentration 10.0 μM), “+”; in the test on IFN (Dose Concentration 100.0 μM), “−”. Further, the “Interferon (α) Induction in Human Cells” value in the test on interferon α (Dose Concentration 0.01 μg/mL), with interferon α (Dose Concentration 0.05 μg/mL), in the test on interferon α (Dose Concentration 0.10 μg/mL), with interferon α (Dose Concentration 0.50 μg/mL), with interferon α (Dose Concentration 1.0 μg/mL) and with interferon α (Dose Concentration 5.0 μg/mL) was “−” throughout. The “Interferon (α) Induction in Human Cells” value in the test with interferon α (Dose Concentration 10.0 μg/mL), with interferon α (Dose Concentration 25.0 μg/mL) and in the test with interferon α (Dose Concentration 50.0 μg/mL) was “−” in each case. Also, the TNF induction entry in the test on TNF (Dose Concentration 0.1 μM), in the test with TNF (Dose Concentration 1.0 μM), with TNF (Dose Concentration 10.0 μM) and in the test with TNF (Dose Concentration 100.0 μM) was “−” in each case.

`CCCCc1nc2c(N)nc3cccnc3c2n1CCCCNC(=O)C1(c2ccc(Cl)cc2)CCCC1` [Example 155]: the IFN induction result in the test with IFN (Dose Concentration 0.1 μM) is “−”; with IFN (Dose Concentration 1.0 μM), “+”; in the test with IFN (Dose Concentration 10.0 μM) it was “+”; with IFN (Dose Concentration 100.0 μM), “+”. The TNF induction result was “−” with TNF (Dose Concentration 0.1 μM), “−” in the test with TNF (Dose Concentration 1.0 μM), “+” in the test on TNF (Dose Concentration 10.0 μM) and “+” in the test on TNF (Dose Concentration 100.0 μM).

As to `CCCCc1nc2c(N)nc3cccnc3c2n1CCCCNC(=O)c1ccco1` [Example 51, N-[4-(4-Amino-2-butyl-1H-imidazo[4,5-c][1,5]naphthyridin-1-yl)butyl]-2-furamide], the IFN induction result with IFN (Dose Concentration 1.0 μM), in the test with IFN (Dose Concentration 10.0 μM) and with IFN (Dose Concentration 100.0 μM) was “+” throughout. Besides, the TNF induction result with TNF (Dose Concentration 1.0 μM) was “+”; in the test with TNF (Dose Concentration 10.0 μM), “+”; in the test on TNF (Dose Concentration 100.0 μM), “−”.

Consider `CCCCc1nc2c(N)nc3cccnc3c2n1CCCCNC(=O)c1ccc(C(=O)c2ccccc2)cc1` [Example 113, N^1-[4-(4-Amino-2-butyl-1H-imidazo[4,5-c][1,5]naphthyridin-1-yl)butyl]-4-benzoylbenzamide], for which the IFN induction entry was “−” in the test with IFN (Dose Concentration 0.1 μM), “+” with IFN (Dose Concentration 1.0 μM), “+” in the test with IFN (Dose Concentration 10.0 μM) and “+” in the test on IFN (Dose Concentration 100.0 μM). The TNF induction result was “−” with TNF (Dose Concentration 0.1 μM), “+” in the test with TNF (Dose Concentration 1.0 μM), “+” in the test with TNF (Dose Concentration 10.0 μM) and “+” in the test on TNF (Dose Concentration 100.0 μM).

As for `CCCCc1nc2c(N)nc3cccnc3c2n1CCCCNC(=O)c1cccnc1` [Example 54, N^3-[4-(4-Amino-2-butyl-1H-imidazo[4,5-c][1,5]naphthyridin-1-yl)butyl]nicotinamide], the IFN induction result with IFN (Dose Concentration 1.0 μM), with IFN (Dose Concentration 10.0 μM) and in the test on IFN (Dose Concentration 100.0 μM) was “+” in each case. Further, the TNF induction result in the test with TNF (Dose Concentration 1.0 μM), in the test with TNF (Dose Concentration 10.0 μM) and in the test with TNF (Dose Concentration 100.0 μM) was “+” in each case.

As to `CCCCc1nc2c(N)nc3cccnc3c2n1CCNC(=O)CCC(=O)c1cccs1` [Example 212], the IFN induction entry in the test with IFN (Dose Concentration 0.1 μM) was “−”; with IFN (Dose Concentration 1.0 μM), “+”; in the test on IFN (Dose Concentration 10.0 μM), “+”; in the test with IFN (Dose Concentration 100.0 μM), “+”. For the same compound, the TNF induction result with TNF (Dose Concentration 0.1 μM) is “−”; in the test on TNF (Dose Concentration 1.0 μM), “+”; in the test with TNF (Dose Concentration 10.0 μM), “+”; in the test with TNF (Dose Concentration 100.0 μM), “+”.

Consider `CCCCc1nc2c(N)nc3cccnc3c2n1CCNC(=O)CC1CCCC1` [Example 124], for which the IFN induction entry with IFN (Dose Concentration 1.0 μM), in the test with IFN (Dose Concentration 10.0 μM) and with IFN (Dose Concentration 100.0 μM) was “+” throughout. In addition, the TNF induction entry with TNF (Dose Concentration 1.0 μM) is reported as “−”; with TNF (Dose Concentration 10.0 μM), “+”; in the test with TNF (Dose Concentration 100.0 μM), “+”.

With `CCCCCCCCCCCC(=O)NCCn1c(CCCC)nc2c(N)nc3cccnc3c21` [Example 201], the IFN induction result in the test with IFN (Dose Concentration 0.1 μM), in the test on IFN (Dose Concentration 1.0 μM), in the test with IFN (Dose Concentration 10.0 μM) and in the test with IFN (Dose Concentration 100.0 μM) was “−” throughout. Further, the TNF induction entry with TNF (Dose Concentration 0.1 μM) was “−”; in the test on TNF (Dose Concentration 1.0 μM), “−”; with TNF (Dose Concentration 10.0 μM), “−”; in the test on TNF (Dose Concentration 100.0 μM), “+”.

Regarding `CCCCc1nc2c(N)nc3cccnc3c2n1CCCCNC(=O)c1c(F)c(F)c(F)c(F)c1F` [Example 163], the IFN induction result in the test on IFN (Dose Concentration 0.1 μM), in the test on IFN (Dose Concentration 1.0 μM), in the test on IFN (Dose Concentration 10.0 μM) and in the test with IFN (Dose Concentration 100.0 μM) was “+” throughout. Further, the TNF induction entry is “−” in the test on TNF (Dose Concentration 0.1 μM), “+” with TNF (Dose Concentration 1.0 μM), “+” in the test on TNF (Dose Concentration 10.0 μM) and “−” in the test with TNF (Dose Concentration 100.0 μM).

These data come from patent US7678918B2, “Intermediates for imidazonaphthyridines” (3M Innovative Properties Company, priority 1997, dated 2010).
